Test: Clearance of ionizable lipid from the mouse lung following chamber nebulization of mRNA LNP (LC-MS)
Format: in vivo
Experimental: On the day of dosing the LNP formulations were diluted to 1.2 mg/mL with PBS and 1.25 mL (1.5 mg dose) of these solutions are placed in Aerogen Solo nebulizer units which sit in a housing attached to a mouse chamber of dimensions 9″×4″×5″ (1×w×h) with a carbon filter attached. Six (6) Balb/C mice are dosed in the chamber at a time. An airflow of 1.5 L/min was forced through the nebulizer housing unit and the nebulizer turned on. During nebulization, some of the LNP condensed from the nebulizer and was collected and passed back through the nebulizer. This continued until no condensate was collected. Upon nebulization to dryness, the mice remained in the chamber for an extra 1-2 min until the LNP vapor dissipated. Complete nebulization of the LNP typically took ˜15 min. At each time points of 0.25 h (immediately after nebulization), 1 h, 6 h and 24 h, three (3) animals per formulation were euthanized with a lethal dosage of ketamine/xylazine and the lungs were excised and cut into ˜100 mg sections. These were placed in FastPrep tubes, fast frozen in liquid N2, and stored at […] until LC-MS analysis.
To the lung sections were added 5 volumes of PBS (e.g. to 50 mg of lung added 250 μL of PBS). These were then homogenized in a FastPrep instrument using 3 cycles of 15 sec each, with a speed of 5.0 m/s and were centrifuged at low speed. Spiked lung homogenate standards were prepared for each cationic lipid (103, 101 and 102) using the lung homogenates of mice dosed with PBS. For each cationic lipid, 10 standards were prepared: the highest standard at a concentration of 12,500 ng/mL with serial dilution by ½ down to 24.4 ng/mL. 20 μL of the homogenates (samples and standards) was added to 225 μL of ISS (IPA containing 100 ng/mL 1-B11 internal standard) in 96-well plates. The plates were mixed by pipetting up and down and were centrifuged at 2500 rpm for 15 min. The supernatant from these extractions were analyzed by LC-MS. By comparing the signal obtained for each sample to the appropriate standard curves for each cationic lipid (103, 101 and 102), the ng/mL of cationic lipid in each homogenate was determined. These values were then normalized to the exact mass of lung tissue that was analyzed. For the Non-biodegradable cationic lipid, the resulting average (n=3) ng 103/g of lung values were plotted without any further manipulation. For the Hydrolyzable cationic lipid, the ng/g of lung values at each time point for both 101 and 102 were combined to give the average (n=3) ng cationic lipid/g of lung values.

[1] = 24 h post administration, nebulized mRNA LNP, mice

SMILES | fate of the lipid in the lungs by 24 h, in words [1] | % Cationic Lipid Remaining (Balb/C, mouse, in vivo) [%] | % Cationic Lipid Remaining (Balb/C, mouse, in vivo, 1 h) [%] | % Cationic Lipid Remaining (Balb/C, mouse, in vivo, 6 h) [%] | % Cationic Lipid Remaining (Balb/C, mouse, in vivo, 24 h) [%] | fate of the lipid in the lungs by 24 h, in words (Balb/C, mouse, in vivo, 24 h)
CCCCC/C=C\CCCO[Si](CCCCN(C)C)(OCCC/C=C\CCCCC)OCCC/C=C\CCCCC [Example 101] | close to complete lipid hydrolysis | – | – | – | – | –
CCCCC/C=C\CCCO[Si](CCCCN(C)CCO)(OCCC/C=C\CCCCC)OCCC/C=C\CCCCC [Example 102] | close to complete lipid hydrolysis | – | – | – | – | –
CCCCC/C=C\CCCC(CCC/C=C\CCCCC)C(CCC/C=C\CCCCC)OC(=O)CCCCN(C)C (stereo not shown) [Example 103] | – | 100 | 120 | 90 | 94 | remained in the lungs for the complete 24 h

Reference: patent publication US20240065982A1 (priority 2020, published 2024)
